From the supplement of paper PMC11208160

Assay: recombinant barcode read abundance after kanamycin selection (control-corrected) (log10(CPM+1)); higher = more efficient recombination; sequences stand for … in AGTGCAGAGAAAATCGGCCAGTTTTCTCTGCCTGCAGTCCGCATGCCGT…ATTTATGCAGCGGACTGCCTTTCTCCCAAAGTGATAAACCGGACAGTATCATGGACCGGTTTTCCCGGTAATCCGTATTTGCAAGGTTGGTTTCACT; site = the 11-nt target
Summary of the method: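 Values are log10(CPM+1) from a pooled E. coli screen of targets paired with IS621 bridge RNA target-binding loops. Recombination efficiency here means counts per million of recombinant-junction barcodes, averaged and control-corrected. Plates were chloramphenicol/ampicillin LB agar for the control and chloramphenicol/ampicillin/kanamycin with 0.1 mM IPTG, two replicates each.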

| Sequence | recombinant barcode read abundance (log10) |
| --- | --- |
| GGTGCCCAGTGGGTTCTAACCTGTTGCCGCT [GGTGCCCCTCG_LTGcore_AG_RTGcore_AG] (site GGTGCCCCTCG) (LTG core: AG, RTG core: AG) | 0.102 |
| GGTGCCCCTTGGGTTCTAACCTGTTGCCGAT [GGTGCCCCTCG_LTGcore_CT_RTGcore_AT] (site GGTGCCCCTCG) (LTG core: CT, RTG core: AT) | 0.19 |
| GGTGCCCCTTGGGTTCTAACCTGTTGCCGCC [GGTGCCCCTCG_LTGcore_CT_RTGcore_GG] (site GGTGCCCCTCG) (LTG core: CT, RTG core: GG) | 0.0795 |
| GGTGCCCCTTGGGTTCTAACCTGTTGCCGCG [GGTGCCCCTCG_LTGcore_CT_RTGcore_CG] (site GGTGCCCCTCG) (LTG core: CT, RTG core: CG) | 0.222 |
| GGTGCCCCTTGGGTTCTAACCTGTTGCCGCT [GGTGCCCCTCG_LTGcore_CT_RTGcore_AG] (site GGTGCCCCTCG) (LTG core: CT, RTG core: AG) | 0.0402 |
| GGTGCCCCTTGGGTTCTAACCTGTTGCCGGC [GGTGCCCCTCG_LTGcore_CT_RTGcore_GC] (site GGTGCCCCTCG) (LTG core: CT, RTG core: GC) | 0.83 |
| GGTGCCCCTTGGGTTCTAACCTGTTGCCGGT [GGTGCCCCTCG_LTGcore_CT_RTGcore_AC] (site GGTGCCCCTCG) (LTG core: CT, RTG core: AC) | 0.0162 |
| GGTGCCCGGTGGGTTCTAACCTGTTGCCGCC [GGTGCCCCTCG_LTGcore_GG_RTGcore_GG] (site GGTGCCCCTCG) (LTG core: GG, RTG core: GG) | 0.0147 |
| GGTGCCCGTTGGGTTCTAACCTGTTGCCGAG [GGTGCCCCTCG_LTGcore_GT_RTGcore_CT] (site GGTGCCCCTCG) (LTG core: GT, RTG core: CT) | 0.0597 |
| GGTGCCCTTTGGGTTCTAACCTGTTGCCGAA [GGTGCCCCTCG_LTGcore_TT_RTGcore_TT] (site GGTGCCCCTCG) (LTG core: TT, RTG core: TT) | 0.622 |
| GTCGCCCAATGGGTTCTAACCTGTTGCTAAG [GTCGCCCCTTA_LTGcore_AA_RTGcore_CT] (site GTCGCCCCTTA) (LTG core: AA, RTG core: CT) | 0.688 |
| GTCGCCCACTGGGTTCTAACCTGTTGCTAAG [GTCGCCCCTTA_LTGcore_AC_RTGcore_CT] (site GTCGCCCCTTA) (LTG core: AC, RTG core: CT) | 0.309 |
| GTCGCCCCATGGGTTCTAACCTGTTGCTAAG [GTCGCCCCTTA_LTGcore_CA_RTGcore_CT] (site GTCGCCCCTTA) (LTG core: CA, RTG core: CT) | 2.04 |
| GTCGCCCCCTGGGTTCTAACCTGTTGCTAAG [GTCGCCCCTTA_LTGcore_CC_RTGcore_CT] (site GTCGCCCCTTA) (LTG core: CC, RTG core: CT) | 0.771 |
| GTCGCCCCTTGGGTTCTAACCTGTTGCTAAT [GTCGCCCCTTA_LTGcore_CT_RTGcore_AT] (site GTCGCCCCTTA) (LTG core: CT, RTG core: AT) | 0.474 |
| GTCGCCCCTTGGGTTCTAACCTGTTGCTACG [GTCGCCCCTTA_LTGcore_CT_RTGcore_CG] (site GTCGCCCCTTA) (LTG core: CT, RTG core: CG) | 0.323 |
| GTCGCCCCTTGGGTTCTAACCTGTTGCTAGA [GTCGCCCCTTA_LTGcore_CT_RTGcore_TC] (site GTCGCCCCTTA) (LTG core: CT, RTG core: TC) | 0.304 |
| GTCGCCCGCTGGGTTCTAACCTGTTGCTAGC [GTCGCCCCTTA_LTGcore_GC_RTGcore_GC] (site GTCGCCCCTTA) (LTG core: GC, RTG core: GC) | 0.459 |
| GTCGCCCTCTGGGTTCTAACCTGTTGCTAAG [GTCGCCCCTTA_LTGcore_TC_RTGcore_CT] (site GTCGCCCCTTA) (LTG core: TC, RTG core: CT) | 0 |
| TAAGAATACTGGGTTCTAACCTGTTGCCTGT [TAAGAATCTAG_LTGcore_AC_RTGcore_AC] (site TAAGAATCTAG) (LTG core: AC, RTG core: AC) | 0.0208 |
| TAAGAATCATGGGTTCTAACCTGTTGCCTAG [TAAGAATCTAG_LTGcore_CA_RTGcore_CT] (site TAAGAATCTAG) (LTG core: CA, RTG core: CT) | 0.838 |
| TAAGAATCTTGGGTTCTAACCTGTTGCCTAC [TAAGAATCTAG_LTGcore_CT_RTGcore_GT] (site TAAGAATCTAG) (LTG core: CT, RTG core: GT) | 0.116 |

| Sequence | recombinant barcode read abundance (log10) |
| --- | --- |
| TAAGAATCTTGGGTTCTAACCTGTTGCCTCA [TAAGAATCTAG_LTGcore_CT_RTGcore_TG] (site TAAGAATCTAG) (LTG core: CT, RTG core: TG) | 0.343 |
| TAAGAATCTTGGGTTCTAACCTGTTGCCTCC [TAAGAATCTAG_LTGcore_CT_RTGcore_GG] (site TAAGAATCTAG) (LTG core: CT, RTG core: GG) | 0.142 |
| TAAGAATCTTGGGTTCTAACCTGTTGCCTGT [TAAGAATCTAG_LTGcore_CT_RTGcore_AC] (site TAAGAATCTAG) (LTG core: CT, RTG core: AC) | 0.0874 |
| TAAGAATGATGGGTTCTAACCTGTTGCCTAG [TAAGAATCTAG_LTGcore_GA_RTGcore_CT] (site TAAGAATCTAG) (LTG core: GA, RTG core: CT) | 0.0742 |
| TAAGAATGCTGGGTTCTAACCTGTTGCCTGC [TAAGAATCTAG_LTGcore_GC_RTGcore_GC] (site TAAGAATCTAG) (LTG core: GC, RTG core: GC) | 0.0564 |
| TAAGAATGGTGGGTTCTAACCTGTTGCCTCC [TAAGAATCTAG_LTGcore_GG_RTGcore_GG] (site TAAGAATCTAG) (LTG core: GG, RTG core: GG) | 0.113 |
| TAAGAATTCTGGGTTCTAACCTGTTGCCTGA [TAAGAATCTAG_LTGcore_TC_RTGcore_TC] (site TAAGAATCTAG) (LTG core: TC, RTG core: TC) | 0.0111 |
| TAAGAATTGTGGGTTCTAACCTGTTGCCTCA [TAAGAATCTAG_LTGcore_TG_RTGcore_TG] (site TAAGAATCTAG) (LTG core: TG, RTG core: TG) | 0.0917 |
| TAGAGGGATTGGGTTCTAACCTGTTGCGGAG [TAGAGGGCTCC_LTGcore_AT_RTGcore_CT] (site TAGAGGGCTCC) (LTG core: AT, RTG core: CT) | 0.147 |
| TAGAGGGCGTGGGTTCTAACCTGTTGCGGAG [TAGAGGGCTCC_LTGcore_CG_RTGcore_CT] (site TAGAGGGCTCC) (LTG core: CG, RTG core: CT) | 2.42 |
| TAGAGGGGTTGGGTTCTAACCTGTTGCGGAG [TAGAGGGCTCC_LTGcore_GT_RTGcore_CT] (site TAGAGGGCTCC) (LTG core: GT, RTG core: CT) | 0.85 |
| TCGCGACATTGGGTTCTAACCTGTTGCCGAT [TCGCGACCTCG_LTGcore_AT_RTGcore_AT] (site TCGCGACCTCG) (LTG core: AT, RTG core: AT) | 0.205 |
| TCGCGACCCTGGGTTCTAACCTGTTGCCGAG [TCGCGACCTCG_LTGcore_CC_RTGcore_CT] (site TCGCGACCTCG) (LTG core: CC, RTG core: CT) | 0.466 |
| TCGCGACCGTGGGTTCTAACCTGTTGCCGCG [TCGCGACCTCG_LTGcore_CG_RTGcore_CG] (site TCGCGACCTCG) (LTG core: CG, RTG core: CG) | 0.0313 |
| TCGCGACCTTGGGTTCTAACCTGTTGCCGAC [TCGCGACCTCG_LTGcore_CT_RTGcore_GT] (site TCGCGACCTCG) (LTG core: CT, RTG core: GT) | 0.201 |
| TCGCGACCTTGGGTTCTAACCTGTTGCCGGC [TCGCGACCTCG_LTGcore_CT_RTGcore_GC] (site TCGCGACCTCG) (LTG core: CT, RTG core: GC) | 0.0211 |
| TCGCGACCTTGGGTTCTAACCTGTTGCCGTG [TCGCGACCTCG_LTGcore_CT_RTGcore_CA] (site TCGCGACCTCG) (LTG core: CT, RTG core: CA) | 0.0363 |
| TCGCGACGGTGGGTTCTAACCTGTTGCCGAG [TCGCGACCTCG_LTGcore_GG_RTGcore_CT] (site TCGCGACCTCG) (LTG core: GG, RTG core: CT) | 0.167 |
| TCGCGACTGTGGGTTCTAACCTGTTGCCGAG [TCGCGACCTCG_LTGcore_TG_RTGcore_CT] (site TCGCGACCTCG) (LTG core: TG, RTG core: CT) | 0.302 |
| TCGCGACTTTGGGTTCTAACCTGTTGCCGAG [TCGCGACCTCG_LTGcore_TT_RTGcore_CT] (site TCGCGACCTCG) (LTG core: TT, RTG core: CT) | 0.282 |
| TCTACCCAGTGGGTTCTAACCTGTTGCTGCT [TCTACCCCTCA_LTGcore_AG_RTGcore_AG] (site TCTACCCCTCA) (LTG core: AG, RTG core: AG) | 0.24 |
